Source: patent publication US20230219946A1, “PYRIMIDIN-4(3H)-ONE HETEROCYCLIC COMPOUND, PREPARATION METHOD THEREOF, AND PHARMACEUTICAL USE THEREOF” (Beijing Innocare Pharma Tech Co., Ltd., priority 2020, published 2023)
pIC50: −log10 of the molar value. Where a name gives a salt, the structure may show the parent alone.

Experiments:
[1] = molecular target: T1, Recombinant human SHP2 full-length protein (Homo sapiens, UniProt Q06124); assay: SHP2 activity inhibition measurement (fluorescence detection, surrogate substrate DiFMUP); assay type: biochemical; settings: recombinant human SHP2 full-length protein activated with diphosphopeptide
T1 construct: Recombinant human SHP2 full-length protein
T1 sequence (Q06124 1-593): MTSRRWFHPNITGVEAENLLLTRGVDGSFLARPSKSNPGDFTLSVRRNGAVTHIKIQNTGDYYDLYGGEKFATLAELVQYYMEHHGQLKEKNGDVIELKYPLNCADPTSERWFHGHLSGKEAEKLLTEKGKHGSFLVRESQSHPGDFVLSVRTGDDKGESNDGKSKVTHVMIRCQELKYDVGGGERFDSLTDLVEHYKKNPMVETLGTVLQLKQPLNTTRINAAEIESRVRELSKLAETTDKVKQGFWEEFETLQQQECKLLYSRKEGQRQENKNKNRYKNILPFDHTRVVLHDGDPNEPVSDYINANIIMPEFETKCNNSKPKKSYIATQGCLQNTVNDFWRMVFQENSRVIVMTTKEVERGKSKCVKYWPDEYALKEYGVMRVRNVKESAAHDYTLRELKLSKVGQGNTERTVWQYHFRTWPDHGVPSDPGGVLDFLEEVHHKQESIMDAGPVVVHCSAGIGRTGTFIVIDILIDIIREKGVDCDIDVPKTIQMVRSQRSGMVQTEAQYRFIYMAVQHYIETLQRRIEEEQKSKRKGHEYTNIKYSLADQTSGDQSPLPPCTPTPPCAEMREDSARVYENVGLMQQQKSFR
Protocol: SHP2 activity inhibition measurement
The effect of the compound of the present invention on SHP2 activity is evaluated by rapid fluorescence detection method using the surrogate substrate DiFMUP.
(§1) The experimental method is outlined as follows:
Recombinant human SHP2 full-length protein was expressed and purified by the protein purification and identification platform of Tsinghua University; diphosphopeptide (H2N-LN(pY)IDLDLV-(dPEG8)LST(pY)ASINFQK-amide) was synthesized by Nanjing GenScript Biotechnology Co., Ltd.; surrogate substrate DiFMUP was purchased from Thermo Fisher Scientific (Cat. No. D6567); reaction buffer contained the following components: 60 mM HEPES (pH 7.2), 75 mM NaCl, 75 mM KCl, 1 mM EDTA, 0.05% TWEEN 20, and 5 mM DTT.
The compound was dissolved in DMSO (Sigma, Cat. No. D5879) and diluted to 100 μM. The resulting solution was serially diluted 4-fold with DMSO to a minimum concentration of 6.1 nM, and each concentration point was diluted 25-fold with the reaction buffer.
10 μL of compound solution and 10 μL of 0.25 nM SHP2 protein solution were added to a 384-well microplate (Corning, Cat. No. 3575), mixed well, and incubated at room temperature for 30 min. 10 μL of 0.5 μM diphosphopeptide (dissolved in the reaction buffer) was added, mixed well, and incubated at room temperature for 30 to 60 min. Subsequently, 10 μL of 60 μM DiFMUP solution (dissolved in the reaction buffer) was added, mixed well, and let stand at room temperature. After 30 min, fluorescence signals were measured at 340 nm (excitation wavelength)/450 nm (emission wavelength) using a microplate reader (EnSpire, Perkin Elmer). The fluorescence intensity value was positively correlated with the degree of dephosphorylation of the substrate, thereby reflecting the catalytic activity of SHP2. […] An inhibition curve of the compound was plotted by XLfit software and the inhibitory IC50 was calculated.

[2] = test system: human non-small cell lung cancer cell line NCI-H358; assay: NCI-H358 cell proliferation inhibition (luminescent cell viability assay, CTG); assay type: cell-based; settings: 120 h, NCI-H358 cells, 5 days, CellTiter-Glo
Protocol: Determination of NCI-H358 cell proliferation inhibition
The effect of the compound of the present invention on proliferation of human non-small cell lung cancer cell line NCI-H358 is evaluated by luminescent cell viability assay.
as §1
The compound was dissolved in DMSO (Sigma, Cat. No. D5879) and diluted to 5 mM. The resulting solution was serially diluted 4-fold with DMSO to a minimum concentration of […], and each concentration point was diluted 50-fold with RPMI 1640 Medium (Thermo Fisher Scientific, Cat. No. 11995073). When the IC50 value of the compound was low, the initial concentration of the compound was further reduced.
NCI-H358 cells (ATCC, Cat. No. CRL-5807) were cultured in RPMI 1640 Complete Medium [RPMI 1640 Medium was supplemented with 10% FBS (GBICO, Cat. No. 10099-141) and 100 units/mL Penicillin-Streptomycin (Thermo Fisher Scientific, Cat. No. 15140122)]. The cells (15,000 cells/mL) were seeded in 90 μL of Complete Medium on a 96-well plate. After culturing overnight, 10 μL of compound solution was added to each well and cultured at 37° C. in a 5% CO2 incubator for 5 days. According to the instruction from the CellTilter-Glo (CTG) kit (Promega, Cat. No. G7572), the cell culture plate was removed from incubator and equilibrated to room temperature. The cells were lysed fully with 50 μL of CTG reagent and placed at room temperature for 10 min. A luminescence signal was read by the microplate reader (EnVision, Perkin Elmer). […] An inhibition curve of the compound was plotted by XLfit software and the inhibitory IC50 was calculated.

SMILES	pIC50 [1]	pIC50 [2]
Cn1c(N2CCC3(CCC[C@H]3N)CC2)nc(N)c(Sc2cccc3[nH]ncc23)c1=O [Compound 13, (R)-5-((1H-indazole-4-yl)thio)-6-amino-2-(1-amino-8-azaspiro[4.5]decan-8-yl)-3-m ethylpyrimidin-4(3H)-one formate]	8.06	–
[2H]C([2H])([2H])n1c(N2CCC3(CC2)CO[C@@H](C)[C@H]3N)ncc(Sc2ccc3nn(C)cc3c2Cl)c1=O [Compound 19, 2-((3S,4S)-4-amino-3-methyl-2-oxa-8-azaspiro[4.5]decan-8-yl)-5-((4-chloro-2-methyl-2H-indazole-5-yl)thio)-3-(methyl-d3)pyrimidin-4(3H)-one]	7.96	6.65
Cn1c(N2CCC3(CCC[C@H]3N)CC2)ncc(Sc2ccc3[nH]ncc3c2)c1=O [Compound 6, (R)-5-((1H-indazole-5-yl)thio)-2-(1-amino-8-azaspiro[4.5]decan-8-yl)-3-methylpyrimidin-4(3H)-one hydrochloride]	6.06	–
C[C@@H]1OCC2(CCN(c3ncc(Sc4ccnc5c4ccn5C)c(=O)n3C)CC2)[C@@H]1N [Compound 17, 2-((3S,4S)-4-amino-3-methyl-2-oxa-8-azaspiro[4.5]decan-8-yl)-3-methyl-5-((1-methyl-1H-pyrrolo[2,3-b]pyridin-4-yl)thio)pyrimidin-4(3H)-one formate]	7.85	6.27
C[C@@H]1OCC2(CCN(c3nc(N)c(Sc4ccn5nccc5c4Cl)c(=O)n3C)CC2)[C@@H]1N [Compound 15, 6-Amino-2-((3S,4S)-4-amino-3-methyl-2-oxa-8-azaspiro[4.5]decan-8-yl)-5-((4-chloropyrazolo[1,5-a]pyridine-5-yl)thio)-3-methylpyrimidin-4(3H)-one formate]	8.57	6.47
C[C@@H]1OCC2(CCN(c3ncc(Sc4ccnc5[nH]ccc45)c(=O)n3C)CC2)[C@@H]1N [Compound 18, 5-((1H-pyrrolo[2,3-b]pyridin-4-yl)thio)-2-((3S,4S)-4-amino-3-methyl-2-oxa-8-azaspiro[4.5]decan-8-yl)-3-methylpyrimidin-4(3H)-one formate]	8.26	6.47
Cn1cc2c(Cl)c(Sc3cnc(N4CCC(C)(CN)CC4)n(C)c3=O)ccc2n1 [Compound 16, 2-(4-(Aminomethyl)-4-methylpiperidin-1-yl)-5-((4-chloro-2-methyl-2H-indazole-5-yl)thio)-3-methylpyrimidin-4(3H)-one formate]	7.25	–
Cn1c(N2CCC3(CCC[C@H]3N)CC2)ncc(Sc2ccn3nccc3c2)c1=O [Compound 5, (R)-2-(1-amino-8-azaspiro[4.5]decan-8-yl)-3-methyl-5-(pyrazolo[1,5-a]pyridin-5-ylthio)pyrimidin-4(3H)-one hydrochloride]	6.10	–
Cn1c(N2CCC3(CCC[C@H]3N)CC2)ncc(Sc2cccc3[nH]ncc23)c1=O [Compound 3, (R)-5-((1H-indazole-4-yl)thio)-2-(1-amino-8-azaspiro[4.5]decan-8-yl)-3-methylpyrimidin-4(3H)-one hydrochloride]	7.70	6.36
Cn1c(N2CCC3(CCC[C@H]3N)CC2)ncc(Sc2ccnc3c2ccn3C)c1=O [Compound 2, (R)-2-(1-amino-8-azaspiro[4.5]decan-8-yl)-3-methyl-5-((1-methyl-1H-pyrrolo[2,3-b]pyridin-4-yl)thio)pyrimidin-4(3H)-one formate]	7.70	6.42
Cn1c(N2CCC3(CCC[C@H]3N)CC2)ncc(Sc2cccn3nccc23)c1=O [Compound 4, (R)-2-(1-amino-8-azaspiro[4.5]decan-8-yl)-3-methyl-5-(pyrazolo[1,5-a]pyridin-4-ylthio)pyrimidin-4(3H)-one formate]	6.90	5.63
Cn1nc2ccc(Sc3cnc(N4CCC5(CCC[C@H]5N)CC4)n(C)c3=O)c(Cl)c2c1C#N [Compound 9, (R)-5-((2-(1-amino-8-azaspiro[4.5]decan-8-yl)-1-methyl-6-oxo-1,6-dihydropyrimidin-5-yl)thio)-4-chloro-2-methyl-2H-indazole-3-carbonitrile formate]	8.06	5.87
